pIC50: −log10 of the molar value. Read-outs that look alike come from different tables or passages of the source.
How the values were obtained:
Caco-2 cells [1] = test: LC/MSMS of intra-cell polyamines in Caco-2 cells; assay type: cell-based, human; settings: proliferating Caco-2, 10 micromoles per liter, 72 hours
Experimental: After treatment for 72 hours of the Caco-2 cells, in proliferative phase by Quilamine HQ1-44 and ICL670 in a concentration of 10 micromoles per liter, a biochemical analysis is carried out by tandem mass spectrometry coupled with liquid chromatography (LC/MSMS) of the intra-cell polyamines such as putrescine, spermidine and spermine, after dansylation.

Caco-2 cells [2] = test: Biochemical analysis of intra-cell iron, L-ferritin and transferrin soluble receptor in Caco-2 cells; assay type: cell-based, human; settings: 72 hours; for intra-cell iron and L-ferritin concentrations: Caco-2, 10 micromoles per liter; for transferrin-soluble receptor: Caco-2 supernatant, 10 micromoles per liter
Experimental: After treatment for 72 hours of the Caco-2 cells in proliferative phase by Quilamine HQ1-44 and ICL670, biochemical analysis is carried out on the intra-cell iron (Fe2+ and Fe3+), of the two main proteins for regulating iron metabolism by the dosing of the intra-cell concentrations in L-ferritin, the iron storage protein, as well as the analysis of the transferrin soluble receptor the cell supernatant, which is a marker of the concentration in transferrin receptor, the iron importing protein of the membrane.

[3] = tested on: ODC, OAZ1, SAMDC and PAO genes; test: RT-qPCR of polyamine metabolism genes in Caco-2 cells; assay type: cell-based, human; settings: proliferating Caco-2, 10 micromoles per liter, 72 hours
Experimental: After treatment for 72 hours of the Caco-2 cells, in proliferative phase by Quilamine HQ1-44 and ICL670 in a concentration of 10 micromoles per liter, an analysis is carried by RT-qPCR of the expression of the main genes for regulating the metabolism of polyamines, such as ornithine decarboxylase (ODC), antizyme (OAZ1), S-adenosyl methionine decarboxylase (SAMDC) and polyamine oxydase (PAO).

HepG2 cells = test: Anti-proliferative effect on HepG2 cells (nuclei count or SDH activity); assay type: cell-based, human; settings: for pIC50: Homo sapiens, HepG2, absence of exogenous iron, read-out: IC50 associated with the cytostatic effect; for pIC50 / % of HepG2 cells concerned by the anti-proliferative effect: 72 h; for % of HepG2 cells concerned by the anti-proliferative effect: absence of exogenous iron
Source text: The majority of the Quilamines, like ICL670, show biphase dose-effect curves in the absence of exogenous iron, with an anti-proliferative constituent for concentration values of 1 to 10 micromoles per liter and a cytotoxic constituent associated with a release of LDH for concentration values of over 10 micromoles per liter. The percentage of HepG2 cells concerned by the anti-proliferative effect and the values of IC50 associated with this cytostatic effect in the absence of exogenous iron were listed in the table 4 below.
The implication of PTS in the cytostatic and cytotoxic action of Quilamines was analyzed in proliferating HepG2 hepatocyte tumor cells after activation of PTS or competitive inhibition of PTS by spermidine, a polyamine naturally present in the organism and most efficaciously captured by the PTS. The conditions of treatment by Quilamines are identical to those described in paragraph III-1.
Inhibiting ornithine decarboxylase (ODC), the key enzyme in the biosynthesis of polyamines, causes a depletion of intra-cell polyamines and an activation of PTS which enables the deficiency to be met. This activation of PTS is done by means of the ODC inhibitor, alpha-difluoromethyl ornithine (DFMO).
The competitive inhibition of PTS by spermidine is prompted by the co-treatment of the cells by the Quilamines in the presence of spermidine, in a concentration of 50 micromoles per liter.

Caco-2 cells [4] = test: Cell viability of proliferating Caco-2 cells (number of nuclei); assay type: cell-based, human; settings: for Constituent 1 (1-10 μM) % cell / Constituent 2 (10-100 μM) % cell: Caco-2 J4, no exogenous iron; for pIC50: Homo sapiens, no exogenous iron
Experimental: (§1) The action of Quilamines on the cell viability was analyzed on enterocyte cells of the Caco-2 tumor cell line derived from human colon carcinoma and compared with the action of ICL670 in the presence or absence of exogenous iron, after activation (DFMO) or competitive inhibition by spermidine, of the PTS. The operating conditions used are identical to those used for CHO/CHO-MG and HepG2 cells.
The results for the measurement of the anti-proliferative effect of Quilamines, and of ICL670 on the proliferating cells (cytostatic constituent) when there is no exogenous iron have been listed in the table 4 below.

Caco-2 cells [5] = test: LDH release of Caco-2 cells; assay type: cell-based, human; settings: for influence of exogenous iron on the cytotoxic effect: Caco-2, after addition of exogenous iron; for % LDH/control 10 μM: Caco-2 J4, 10 μM; for % LDH/control 100 μM: Caco-2 J4, 100 μM
Experimental: as §1
As in the case of the other cell lines in proliferative phase presented here above, the dose-effect curves of the action of the Quilamines on the number of viable cells (number of nuclei) are biphase curves with a cytostatic constituent for concentration values of below 30 micromoles per liter and a cytotoxic constituent with release of LDH for concentration values above 30 micromoles per liter. Only this second cytotoxic constituent is observed when the cells of the Caco-2 cell line are treated after confluence (stopping of the proliferation).

[6] = tested on: L-ferritin and transferrin receptor genes; test: RT-qPCR of iron metabolism genes in Caco-2 cells; assay type: cell-based, human; settings: Caco-2 in proliferative phase, 10 micromoles per liter, 72 hours
Experimental: After treatment for 72 hours of the Caco-2 cells in proliferative phase by the Quilamine HQ1-44 and ICL670 in a concentration of 10 micromoles per liter, an analysis is carried out by real-time polymerase chain reaction (RT-qPCR) technique of the expression of the two main genes for regulating intra-cell iron metabolism, that of L-ferritin, the iron-storing protein, and that of the transferrin receptor, which is the iron-importing protein of the membrane. The DNAc (complementary dioxyribonucleic acid) synthesized during the reverse transcription are amplified by the qPCR (quantity of polymerization chain reaction) to quantify the expression of the mNRA (messenger ribonucleic acid) of the genes involved in iron metabolism.

[7] = tested on: wild cell line (CHO) of hamster ovarian cells; test: Anti-proliferative effect on CHO cells, counting of cell nuclei (Hoechst 33342); assay type: cell-based; settings: CHO
Experimental: The in vitro efficacy of different Quilamines was tested on a wild cell line (CHO) of hamster ovarian cells having PTS and a mutant cell line CHO-MG without PTS. The two cell types CHO and CHO-MG were treated, 24 hours after being seeded in 96-well microplates, by concentrations of different Quilamines ranging from 0.1 to 400 micromoles per liter. The cytostatic (anti-proliferative) effects and cytotoxic effects of Quilamine after 72 hours' treatment of the cells were assessed respectively by counting cell nuclei after DNA marking by the Hoechst 33342 fluorescent intercalant dye and by analysis of membrane damage detected by the dosing of the lactate dehydrogenase activity (LHD) in the supernatants.
The IC50 inhibitor concentration corresponding to the concentration in Quilamines enables the inhibition at 50% of the cell proliferation was deduced from the dose-effect curves of numeration of the nuclei of the living cells on the CHO and CHO-MG cell lines. […] The lower the value of IC50, the greater the efficiency of the anti-proliferative effect of the tested chelators.
A comparison was made of the cytostatic or anti-proliferative action and the cytotoxic action for 72 h of treatment by Quilamine HQ1-44 and 8-hydroxyquinoline and ICL670, on the CHO cell lines in the presence and without the presence of exogenous iron, in the form of Fe(III) citrate in a concentration of 20 micromoles per liter. The results obtained are shown in FIG. 4, FIG. 4A relating to the results on cell viability and FIG. 4B relating to the results on cell toxicity.

[8] = Caco-2 J4, cytostatic constituent, read-out: Constituent 1 (1-10 μM) IC50
[9] = Caco-2 J4, cytotoxic constituent, read-out: Constituent 2 (10-100 μM) IC50
[10] = Fe(III) citrate 20 micromoles per liter
[11] = 72 h treatment, no exogenous iron, read-out: IC50 CHO

pIC50 (HepG2 cells) | pIC50 (Caco-2 cells [4]; [8]) | % LDH/control 10 μM (Caco-2 cells [5]) [%] | % LDH/control 100 μM (Caco-2 cells [5]) [%] | SMILES | change of intra-cell concentration of putrescine (Put) (Caco-2 cells [1]) [%] | change of intra-cell concentration of spermidine (Spd) (Caco-2 cells [1]) [%] | intra-cell iron and L-ferritin concentrations (Caco-2 cells [2]) | transferrin-soluble receptor (Caco-2 cells [2]) | expression of the genes of polyamine metabolism (ODC, OAZ1, SAMDC, PAO) [3] | % of HepG2 cells concerned by the anti-proliferative effect (HepG2 cells) [%] | Constituent 1 (1-10 μM) % cell (Caco-2 cells [4]) [%] | Constituent 2 (10-100 μM) % cell (Caco-2 cells [4]) [%] | pIC50 (Caco-2 cells [4]; [9]) | influence of exogenous iron on the cytotoxic effect (Caco-2 cells [5]) | expression of the genes for L-ferritin and the transferrin receptor [6] | influence of exogenous iron on the cytostatic (anti-proliferative) effect [7, 10] | pIC50 [7, 11] | other results
5.56 | 5.89 | 118 | 287 | NCCCCNCCCCNCc1ccc2cccc(O)c2n1 [HQ1-44, 2-[4-(4-aminobutyl)aminobutyl]aminomethylquinolin-8-ol] | −73 | −55 | intra-cell iron depletion | no significant effect | no effect | 30 | 70 | 30 | 4.70 | partially inhibited | do not significantly modify | improvement | 5.85 | effect on intra-cell spermine (Spm) (Caco-2 cells [1]): absence of an effect; influence of competitive inhibition of PTS by spermidine on the cytostatic effects (HepG2 cells; HepG2, spermidine 50 micromoles per liter, Quilamine below 10 micromoles per liter): inhibition; pIC50 ([7]; Fe(III) citrate 20 micromoles per liter, 72 h, read-out: IC50 CHO in the presence of exogenous iron): 6.22
5.41 | 5.77 | 117 | 130 | O=C(O)c1ccc(-n2nc(-c3ccccc3O)nc2-c2ccccc2O)cc1 [ICL670, reference compound] | −34 | −15 | intra-cell iron depletion | no significant effect | no effect | 72.5 | 18 | 82 | 4.05 | inhibition | do not significantly modify | inhibition | 5.04 | influence of exogenous iron on the cytostatic effect (Caco-2 cells [4]; Caco-2, after addition of exogenous iron): inhibition

Reference: US20140364454A1, “METAL-CHELATING COMPOUNDS HAVING AT LEAST ONE POLYAMINO CHAIN” (UNIVERSITE DE RENNES I, priority 2011, published 2014)
